Laboratory results as given in publication PMC6272399, “Anti-Proliferative Effect and Induction of Apoptosis in Androgen-Independent Human Prostate Cancer Cells by 1,5-Bis(2-hydroxyphenyl)-1,4-pentadiene-3-one” (Molecules, 2015).
“Also recorded” adds a separate entry of the source.

How the values were obtained:
prostate cancer cells = test system: prostate cancer cells; parameters: method as in PMID 21796654; conditions: compound labeled ca27; cited from earlier work
[1] = test system: caspase-3 activity in DU 145 cells; experiment: Caspase-3 colorimetric activity assay, DU 145; format: cell-based, human
Method: (§1) Caspase-3 activity was determined using the caspase-3 colorimetric assay kit (Sigma-Aldrich) according to manufacturer’s protocol. The assay is based on spectrophotometric detection of p-nitroanilide (pNA) a colored molecule, after its cleavage from the labeled substrate DEVD-pNA by the activity of caspase-3 enzyme. PC-3 and DU 145 cells were treated with MS17 at different concentrations (EC50, 2 × EC50, 3 × EC50) at various time points, 6, 12, 24, 48 and 72 h as appropriate. Following treatment, cells were washed with PBS and suspended with lysis buffer (50 mM HEPES, pH 7.4, 5 mM CHAPS, 5 mM DTT) for 30 min on ice at the concentration of 10^7 cells per 100 µL buffer. Cells were then spun for 30 min at 16,000× g, 4 °C. Protein lysate concentrations were measured based on the Bradford assay method using the Cayman Chemical protein determination kit (Cayman Chemical Company, Ann Arbor, MI, USA) based on the manufacturer’s protocol. Assay was performed on a 96-well micro-titer plate by adding equal amount of protein lysate (~100 µg) into wells containing the assay buffer (20 mM HEPES pH 7.4, 0.1% CHAPS, 5 mM DTT, 2 mM EDTA). Reaction was started by the addition of 10 µL of substrate Ac-DEVD-pNA (2 mM). The effect of Ac-DEVD-CHO, a caspase-3 inhibitor was also studied simultaneously on caspase-3 activity. Ten microliter of the inhibitor (200 µM) was added into the wells containing the protein lysate, assay buffer and the substrate. Caspase-3 activity was measured upon the release of pNA molecule, a pale yellow colored product using the micro-plate ELISA reader (Bio-Rad) at the wavelength of 405 nm. Relative caspase-3 activity was expressed as absorbance of enzyme activity compared with the control (untreated cells/DMSO only) based on the equation below: Relative caspase 3 activity= Absorbance of treated cells /Absorbance of control

[2] = test system: caspase-3 activity in PC-3 cells; experiment: Caspase-3 colorimetric activity assay, PC-3; format: cell-based, human
Method: as §1

DU 145 cells = experiment: BrdU cell proliferation assay, DU 145; format: cell-based, human; conditions: DU 145, BrdU
Method: The anti-proliferative effects of compound on treated cells, was measured using the BrdU cell proliferation assay kit (Roche Applied Science Diagnostics, Indianapolis, IN, USA) according to the manufacturer’s protocol. The assay was based on incorporation of BrdU during DNA synthesis in proliferating cells. Cells were plated at a concentration of 10^4 cells/mL in a 96-well microtiter plate and incubated overnight. The cells were treated with compounds and curcumin (concentrations ranging from 1.56 µM–100 µM) as positive control for 24, 48 and 72 h respectively. Then, BrdU labeling solution (5 µL, diluted by 1/100 in culture media) was added to each well and incubated for 2 h at 37 °C. The media was replaced with fix/denaturing solution (100 µL) and incubated for 30 min at room temperature. Then, the fix/denaturing solution was removed by tapping off and followed by addition of 50 µL anti-BrdU antibody (50 µL, diluted by 1/100 in dilution buffer) to each well and further incubated for another 90 min at room temperature. Next, the cells were washed 3 times with wash buffer and substrate solution (50 µL) was added to each well. The plate was left for 10 min at room temperature in the dark and the absorbance was measured at a wavelength of 370 nm with a reference wavelength of 492 nm using a micro-plate ELISA reader (Bio-Rad). The percentage of BrdU incorporation was determined based on the ratio of absorbance of sample treated-cells to absorbance of control (untreated cells/DMSO only) multiplied by 100.

PC-3 cells = experiment: MTT cytotoxicity (cell viability) assay, PC-3; format: cell-based, human
Method: Cell viability was determined by the MTT [3-(4,5-dimethylthiazol-2-yl)-2,5-diphenyltetrazolium bromide] assay, as previously described by Mosmann with modifications. Briefly, cells were detached from the tissue culture flask and pelleted by centrifugation at 1000 rpm for 5 min. Then, the density of the viable cells was counted using a haemocytometer. Cells were then plated in a 96-well flat bottom micro-titer plate (Nunc) at a concentration of 10^4 cells/mL and incubated in a 5% CO2 incubator at 37 °C overnight to allow the cells to adhere to the bottom of the wells. After 24 h, the media was aspirated off and replaced with fresh media containing sample compounds (curcumin and curcumin analogues) of seven different concentrations ranging from 1.56 µM–100 µM and incubated at 37 °C, 5% CO2 for 72 h. Separately, the sample compounds were prepared in a stock solution of 50 mM in 100% dimethyl sulfoxide (DMSO, Molecular Biology Grade, Sigma-Aldrich, St. Louis, MO, USA) and diluted in the culture media to a working concentration of 200 µM. Curcumin, the parent compound which was used as the positive control was also prepared in the similar manner. A two-fold serial dilution was done for each sample in triplicates down the columns of the plate, yielding a final volume and concentration of 100 µL in 0.2% DMSO in each wells. Following treatment, 50 µL MTT solutions (0.5 mg/mL in PBS) was added to each well and incubated for another 4 h at 37 °C in a humidified 5% CO2 incubator. The supernatant was replaced with 100 µL of DMSO and the optical density (OD) was measured at 570/650 nm using a micro-plate ELISA reader (Bio-Rad Laboratories, Hercules, CA, USA). The percentage of viable cells was calculated based on the ratio of the corrected absorbance of sample-treated cells to the corrected absorbance of the control (0.2% DMSO-treated cells) multiplied by 100. The percentage of cell viability was determined as follows: % Cell viability= OD of treated cells /OD of control ×100
For each compound tested, the EC50 value was generated from the log dose-response curves for each cell line using the Graphpad Prism version 5.04 for Windows (Graphpad Software, La Jolla, CA, USA). […] Cytotoxicity of each tested compound is expressed as the EC50 value. Based on the EC50 values, selectivity index (SX) value was also determined. Selectivity index is a special parameter applied as a selectivity indicator of tested compounds towards cancer cells. The SX represents the ratio of EC50 value obtained in toxicity testing using the normal cell lines to the EC50 values of the toxicity testing of the cancer cells, and then multiplied by 100. All the compounds were assessed for their potential toxicity against normal, non-cancerous cells. […] The SX values were calculated using the following equation: SX = EC50 (normal cells)/EC50 (cancer cells) × 100

For `O=C(C=Cc1ccccc1O)C=Cc1ccccc1O` [MS17, 1,5-bis(2-hydroxyphenyl)-1,4-pentadiene-3-one], the “growth inhibition of prostate cancer cells” value (prostate cancer cells) is given as “able to inhibit the growth of prostate cancer cells at a concentration below that typically used for curcumin”, the “relative caspase-3 activity, differences between concentrations” value ([1]; DU 145, 6, 24, 48 and 72 h) is given as “no significant differences of caspase-3 activity” and the “relative caspase-3 activity (treated vs untreated)” value ([1]; DU 145, 12 h, significant at 8.4 and 12.6 µM compared to 4.2 µM) is given as “increased significantly; also recorded: increase in caspase-3 activity”. The “relative caspase-3 activity (treated vs untreated)” value ([2]; PC-3, 4.5, 9.0 and 13.5 µM, 48 h) was “increased significantly; also recorded: significant increase of caspase-3 activity”, the “relative caspase-3 activity, differences between concentrations” value ([2]; PC-3, 12, 24 and 72 h) was “no significant differences of caspase-3 activity” and the “concentration from which anti-proliferative activity is significant” value (DU 145 cells; 24 h) was 6.3 µM. The “concentration from which anti-proliferative activity is significant” value (DU 145 cells; 48 h) was 6.3 µM, the “concentration from which anti-proliferative activity is significant” value (DU 145 cells; 72 h) was 12.5 µM and the EC50 (PC-3 cells; Homo sapiens, PC-3, MTT, 72 h treatment, mean ± SD, three experiments, read-out: EC50 Values (µM) of Compounds on Cell Lines PC-3) was 4.4 ± 0.3 µM. For the same compound, the “dose from which decrease in cell viability is significant” value (PC-3 cells; PC-3, MTT, vs untreated) was 3.1 µM, the “Selective index (SX) WI-38 vs PC-3” value (PC-3 cells; SX = EC50 (WI-38)/EC50 (PC-3) × 100) was 117.4 and the “Selective index (SX) WRL68 vs PC-3” value (PC-3 cells; SX = EC50 (WRL68)/EC50 (PC-3) × 100) was 124.9.
